Results published in BindingDB's records for doi:10.1016/s0960-894x(98)00175-9 (Dupont Pharmaceuticals, 1998).

Molecular target: T1, Dimer of Gag-Pol polyprotein [489-587] (Human immunodeficiency virus 1, UniProt P12497)
T1 construct: 489-587
Test: Protease Inhibition Assay
Conditions: pH 5.5; 37 °C
Experimental: Inhibition of HIV protease was measured by assay of the cleavage of a fluorescent peptide substrate. The fluorescent product (2-aminobenzoyl-Ala-Thr-His-Gln-Val-Tyr) was separated from the fluorescent substrate by anion-exchange HPLC on a Mono-Q anion-exchange column (Pharmacia), and fluorescence was monitored at an excitation wavelength of 330 nm and an emission wavelength of 430 nm. Ki values for inhibitor binding were estimated at fixed concentrations of substrate and inhibitor from fractional activity measurements by use of the modified Michaelis-Menten equation.

CC(C)C[C@@H]1[C@H](O)[C@@H](O)[C@@H](CC(C)C)N(Cc2ccc(CO)cc2)C(=O)N1Cc1ccc(CO)cc1 [(4R,5S,6S,7R)-5,6-dihydroxy-1,3-bis({[4-(hydroxymethyl)phenyl]methyl})-4,7-bis(2-methylpropyl)-1,3-diazepan-2-one]
Ki: 38 nM

O=C1N(CC2CC2)[C@H](Cc2cccs2)[C@H](O)[C@@H](O)[C@@H](Cc2cccs2)N1CC1CC1 [(4R,5S,6S,7R)-Hexahydro-5,6-dihydroxy-1,3-bis-(cyclopropylmethyl)-4,7-bis(2-thienylmethyl)-2H-1,3-diazapin-2-one]
Ki: 9.1 nM

O=C1N(Cc2ccc(CO)cc2)[C@H](CC2CCCCC2)[C@H](O)[C@@H](O)[C@@H](CC2CCCCC2)N1Cc1ccc(CO)cc1 [(4R,5S,6S,7R)-4,7-bis(cyclohexylmethyl)-5,6-dihydroxy-1,3-bis({[4-(hydroxymethyl)phenyl]methyl})-1,3-diazepan-2-one]
Ki: 32 nM

COc1ccc(C[C@@H]2[C@H](O)[C@@H](O)[C@@H](Cc3ccc(OC)cc3)N(Cc3ccc(CO)cc3)C(=O)N2Cc2ccc(CO)cc2)cc1 [(4R,5S,6S,7R)-Hexahydro-5,6-dihydroxy-1,3-bis-[[4-(hydroxymethyl)phenyl]methyl]-4,7-bis[(4-methoxyphenyl)methyl]-2H-1,3-diazapin-2-one]
Ki: 0.24 nM

O=C1N(Cc2ccc(CO)cc2)[C@H](Cc2ccncc2)[C@H](O)[C@@H](O)[C@@H](Cc2ccncc2)N1Cc1ccc(CO)cc1 [(4R,5S,6S,7R)-5,6-dihydroxy-1,3-bis({[4-(hydroxymethyl)phenyl]methyl})-4,7-bis(pyridin-4-ylmethyl)-1,3-diazepan-2-one]
Ki: 4.8 nM

O=C(Nc1nc2ccccc2[nH]1)c1cccc(CN2C(=O)N(Cc3cccc(C(=O)Nc4nc5ccccc5[nH]4)c3)[C@H](Cc3ccccc3)[C@H](O)[C@@H](O)[C@H]2Cc2ccccc2)c1 [N-(1H-1,3-benzodiazol-2-yl)-3-{[(4R,5S,6S,7R)-3-{[3-(1H-1,3-benzodiazol-2-ylcarbamoyl)phenyl]methyl}-4,7-dibenzyl-5,6-dihydroxy-2-oxo-1,3-diazepan-1-yl]methyl}benzamide]
Ki: 0.024 nM

COc1cccc(C[C@@H]2[C@H](O)[C@@H](O)[C@@H](Cc3cccc(OC)c3)N(Cc3ccc(CO)cc3)C(=O)N2Cc2ccc(CO)cc2)c1 [(4R,5S,6S,7R)-5,6-dihydroxy-1,3-bis({[4-(hydroxymethyl)phenyl]methyl})-4,7-bis[(3-methoxyphenyl)methyl]-1,3-diazepan-2-one]
Ki: 0.11 nM

CSCC[C@@H]1[C@H](O)[C@@H](O)[C@@H](CCSC)N(Cc2ccc(CO)cc2)C(=O)N1Cc1ccc(CO)cc1 [(4R,5S,6S,7R)-Hexahydro-5,6-dihydroxy-1,3-bis-[[4-(hydroxymethyl)phenyl]methyl]-4,7-bis[2-(methylthio)ethyl]-2H-1,3-diazapin-2-one]
Ki: 3900 nM

O=C1N(Cc2ccc(CO)cc2)[C@H](Cc2ccc(F)cc2)[C@H](O)[C@@H](O)[C@@H](Cc2ccc(F)cc2)N1Cc1ccc(CO)cc1 [(4R,5S,6S,7R)-Hexahydro-5,6-dihydroxy-1,3-bis-[[4-(hydroxymethyl)phenyl]methyl]-4,7-bis[(4-fluorophenyl)methyl]-2H-1,3-diazapin-2-one]
Ki: 0.44 nM

O=C1N(Cc2ccc(CO)cc2)[C@H](Cc2ccc(F)c(F)c2)[C@H](O)[C@@H](O)[C@@H](Cc2ccc(F)c(F)c2)N1Cc1ccc(CO)cc1 [(4R,5S,6S,7R)-4,7-bis[(3,4-difluorophenyl)methyl]-5,6-dihydroxy-1,3-bis({[4-(hydroxymethyl)phenyl]methyl})-1,3-diazepan-2-one]
Ki: 0.47 nM
